We go through five molecules from patent publication US20090123501A1, “INHIBITION OF THE SH2-DOMAIN CONTAINING PROTEIN TYR-PHOSPHATASE, SHP-1, TO ENHANCE VACCINES” (Baylor College of Medicine, priority 2007, published 2009).

The target of assay [1] is T1, H-2K^b (Mus musculus, UniProt P01901).
T1 construct: surface stabilization assay using the TAP1 deficient cell line RMA-S; endogenous in cells; host or cells: RMA-S
T1 sequence (P01901 22-369): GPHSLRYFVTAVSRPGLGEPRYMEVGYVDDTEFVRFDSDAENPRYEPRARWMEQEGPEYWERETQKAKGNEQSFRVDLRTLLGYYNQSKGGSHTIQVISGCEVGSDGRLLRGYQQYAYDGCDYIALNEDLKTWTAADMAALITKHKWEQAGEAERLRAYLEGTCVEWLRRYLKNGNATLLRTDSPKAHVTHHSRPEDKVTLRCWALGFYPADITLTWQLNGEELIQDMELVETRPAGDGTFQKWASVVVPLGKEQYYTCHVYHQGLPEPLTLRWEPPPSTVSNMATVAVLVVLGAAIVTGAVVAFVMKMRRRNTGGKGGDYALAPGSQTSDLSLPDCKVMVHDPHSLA
T1 sequence (P01887 21-119 partner): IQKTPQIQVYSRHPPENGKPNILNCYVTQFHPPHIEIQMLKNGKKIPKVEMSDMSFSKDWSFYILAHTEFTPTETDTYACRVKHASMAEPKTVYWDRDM
As to the kind of experiment: MHC class I surface stabilization assay on RMA-S cells, H-2Kb. The conditions noted are these: RMA-S cells pulsed with peptide overnight, flow cytometry. Type of assay: binding. As for the experimental part: 10^6 RMA-S cells were incubated overnight at 37° C. with each of the five predicted at the concentrations indicated. Cells were stained with antibodies for H-2K^b (Y-3; ATCC-HB176) or H-2D^b (28-14-8S; ATCC-HB27) followed by a goat anti-mouse-FITC second step and MHC class I surface expression was analyzed by flow cytometry. Specific MFI is the mean fluorescent intensity of the sample-mean fluorescent intensity of goat anti-mouse-FITC second step alone. Error bars represent the standard deviation of triplicate measurements.
(§1) The binding affinity of the five predicted peptides was tested. In a surface stabilization assay using the TAP1 deficient cell line RMA-S. RMA-S cells were pulsed with peptide, at the indicated concentrations, and incubated overnight. Cells were stained with antibodies for H-2K^b (Y-3; ATCC-HB176) or H-2D^b (28-14-8S; ATCC-HB27) followed by a fluorescent-labeled secondary antibody and MHC class I surface expression was analyzed by flow cytometry.
Background: Flow cytometry measures light scatter and fluorescence of single cells or particles in a stream.

For a further assay, the system named is NFκB signaling. As to the kind of experiment: NFκB-dependent secreted alkaline phosphatase reporter in RAW cells. Type of assay: cell-based, murine. The note with it: transient transfection, IFNγ or LPS stimulation. As for the experimental part: (§2) Function of the mutant and wt SHP-1 constructs was tested in RAW cells by transient transfection of SHP-1 vectors along with a reporter construct expressing a secreted alkaline phosphatase driven by either an NFκB or AP-1 dependent promoter. NFκB and AP-1 are major transcription factors stimulated by toll-like receptor (TLR) and cytokine signaling in immune system cells, and represent likely pathways of SHP-1 inhibition on cellular activation. Cells were transfected with the appropriate construct, reporter and then stimulated with interferon-γ (IFNγ) or bacterial lipopolysaccharide (LPS) as ligands for cytokine and TLR receptors respectively.

The next assay concerns AP-1 signaling. Put plainly: AP-1-dependent secreted alkaline phosphatase reporter in RAW cells. Type of assay: cell-based, murine. The conditions noted are these: transient transfection, IFNγ or LPS stimulation. As for the experimental part: as §2
Another assay concerns the target T2, H-2D^b (mouse, UniProt P01887 21-119; P01899 25-309).
T2 construct: whole, on cells;extracellular; MHC class I on RMA-S cells, detected with antibody 28-14-8S (ATCC-HB27) in a surface stabilization assay; also called MHC class 1 molecule H-2D^b
T2 sequence (MHC heavy, looked up): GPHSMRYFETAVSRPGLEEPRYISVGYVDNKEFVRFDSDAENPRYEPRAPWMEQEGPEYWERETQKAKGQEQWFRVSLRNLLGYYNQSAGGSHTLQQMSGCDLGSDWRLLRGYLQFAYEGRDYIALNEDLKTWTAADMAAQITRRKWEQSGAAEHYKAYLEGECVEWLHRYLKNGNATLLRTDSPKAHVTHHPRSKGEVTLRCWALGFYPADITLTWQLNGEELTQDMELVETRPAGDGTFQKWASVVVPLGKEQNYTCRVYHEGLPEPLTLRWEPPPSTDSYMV
T2 sequence (b2m, looked up): T1 sequence (P01887 21-119 partner)
As to the kind of experiment: RMA-S surface stabilization assay, flow cytometry of MHC class I surface expression. As for the experimental part:
(§3) 10⁶ RMA-S cells were incubated overnight at 37° C. with each of the five predicted at the concentrations indicated. Cells were stained with antibodies for H-2K^b (Y-3; ATCC-HB176) or H-2D^b (28-14-8S; ATCC-HB27) followed by a goat anti-mouse-FITC second step and MHC class I surface expression was analyzed by flow cytometry. Specific MFI is the mean fluorescent intensity of the sample-mean fluorescent intensity of goat anti-mouse-FITC second step alone. Error bars represent the standard deviation of triplicate measurements. This is representative of 3 separate studies.
as §1, with “cytometry. […] STEAP₈₄₋₉₁ and STEAP₁₈₆₋₁₉₂ bound with an affinity near that of OVA₂₅₈₋₂₆₅, a well characterized strong binding H-2K^b epitope from chicken ovalbumin. […]” for “cytometry.”

For assay [2], the target named is T3, H-2K^b (mouse, UniProt P01887 21-119; P01901 22-305, limits assumed).
T3 construct: whole, on cells;extracellular; MHC class I on RMA-S cells, detected with antibody Y-3 (ATCC-HB176) in a surface stabilization assay; also called MHC class 1 molecule H-2K^b
T3 sequence (MHC heavy, looked up): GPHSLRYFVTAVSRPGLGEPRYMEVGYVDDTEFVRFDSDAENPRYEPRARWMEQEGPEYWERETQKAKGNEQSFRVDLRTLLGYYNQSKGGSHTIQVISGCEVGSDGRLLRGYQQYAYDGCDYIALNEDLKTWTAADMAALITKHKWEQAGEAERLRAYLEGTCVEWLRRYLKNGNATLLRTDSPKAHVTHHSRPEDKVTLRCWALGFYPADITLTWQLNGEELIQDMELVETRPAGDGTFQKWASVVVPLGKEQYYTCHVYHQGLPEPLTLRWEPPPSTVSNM
T3 sequence (b2m, looked up): T1 sequence (P01887 21-119 partner)
Put plainly: RMA-S surface stabilization assay, flow cytometry with antibody Y-3; reference peptide. Here is the method: In Table 1, OVA Kb binding peptide […] was used as control for a known good binder.
as §3
as §1, with “cytometry. […] STEAP₈₄₋₉₁ and STEAP₁₈₆₋₁₉₂ bound with an affinity near that of OVA₂₅₈₋₂₆₅, a well characterized strong binding H-2K^b epitope from chicken ovalbumin. […]” for “cytometry.”

As for LTFLYTLL [STEAP84-91], the “relative binding affinity to H-2Kb (MHC class I surface expression)” value at H-2K^b [1] is “bound with an affinity near that of OVA258-265”. With RSYRYKLL [STEAP186-192], at H-2K^b [1], the “relative binding affinity to H-2Kb (MHC class I surface expression)” value is “bound with an affinity near that of OVA258-265”. Take “dn-SHP-1: phosphatase dead dominant negative SHP-1 C453S mutant construct, HA-tagged (SEQ ID NO:8)”: in the assay on NFκB signaling, the NFκB signaling result was “enhanced both NFκB and AP-1 signaling”. Besides, the AP-1 signaling entry in the assay on AP-1 signaling is “enhanced both NFκB and AP-1 signaling”.

For LLLGTVHAL (also called LLLGTVHAL) [STEAP262-270], the binding result with H-2D^b was “no binding”. Consider SIINFEKL (also called OVA peptide) [OVA258-265], for which the binding result with H-2K^b [2] is reported as “binds”.
